From patent US7229651B2, “Dietary supplements containing natural ingredients” (Melaleuca, Inc., priority 1998, dated 2007)

What was measured:
[1] = test system: in vivo platelet activity (acute platelet thrombus formation); conditions: cited from earlier work
platelet activity = conditions: aspirin, blood aggregometry test; cited from earlier work
LDL cholesterol = experiment: Copper ion catalysed LDL cholesterol oxidation (conjugated dienes at 234 nm, lag time); assay type: biochemical, human
Source text: LDL cholesterol oxidation or protection therefrom can be determined by several methods. Kleinveld et al., Clin. Chem., 38(10):2066–2072 (1992) describes the methods for the LDL oxidation experiments described and used herein. A preferred way to practice the method encompasses extracting LDL cholesterol from whole blood samples collected from a subject using standard techniques. The extracted LDL cholesterol is divided into control and experimental samples. LDL oxidation is catalyzed by adding a copper ion solution to each LDL cholesterol sample. Copper ions are known to catalyze and enhance LDL cholesterol oxidation. […]
Copper ions accelerate the production of conjugated dienes in LDL cholesterol oxidation, which absorb light at 234 nm. Therefore, LDL cholesterol oxidation is monitored by following the increase in absorbance at 234 nm as a function of time as shown in FIG. 6. […]
As described above, LDL cholesterol oxidation is commonly measured by observing absorbance at 234 nm (Abs234nm) as a function of time while the LDL cholesterol is exposed to oxidative conditions. The antioxidant effectiveness of PROVEXCV™ and other substances was determined.
LDL cholesterol was prepared from human volunteer blood samples. […] To each sample a measured amount of copper ions was added.
After mixing, the Abs234nm of each solution was then monitored as a function of time. […]

| Molecule | dogs with renewed CFR's on epinephrine infusion ([1]; after abolishment of CFR's with 5–10 mg/kg of aspirin) | effect on CFR's ([1]; aspirin, Folts model, literature) | dosage at which platelet activity is inhibited ([1]; aspirin, known value) [mg/kg] | reactivation of inhibited platelet activity on epinephrine ([1]; aspirin, epinephrine 0.2 μg/Kg/min intravenously) | decrease of platelet activity, collagen stimulated (platelet activity) | lag time before LDL oxidation begins vs native LDL (LDL cholesterol; Vitamin E 5.3 mg/L, CuCl2 5 μmol/L, 30° C., FIG. 8) | time LDL cholesterol protected from oxidation (lag time) (LDL cholesterol; vitamin E at the described concentration, copper ions) |
| --- | --- | --- | --- | --- | --- | --- | --- |
| CC(=O)Oc1ccccc1C(=O)O [aspirin] | 50–60 % of dogs | eliminates CFR's | 5 | can be reactivated | 30–40% |  |  |
| vitamin E |  |  |  |  |  | delayed | about 95 minutes |
